Measurements from patent US7465814B2, “Sulfonate compound and fluorescent probe using the same” (priority 2003, dated 2008).

System: esterase
Assay: Fluorescent response to esterase (Table 1)
Format: biochemical
Settings: relative fluorescence intensity, blank = 10; probe 21.3 μM, esterase 0.5 U/mL, 37° C., 10 minutes
Protocol: Moreover, in other conditions than those of the above-described tests, reactivity of all of the compounds 1a to 1d with H2O2, other various kinds of nucleophilic agents, reducing agents and the like also was tested, respectively. More specifically, fluorescent responses of 1a to 1d with respect to a XO-HPX system, a XO-HPX-SOD system, H2O2, ascorbic acid, 1,4-hydroquinone, propylamine, diethylamine, glucose, esterase, a cytochrome P450 reductase+NADPH system, and a diaphorase+NADH system were measured, respectively. Operational processes thereof will be described below. Firstly, 1a to 1d and the above-described reagents were dissolved in HEPES of 10 mM having a pH of 7.4 so as to prepare solutions, respectively. Next, a 96 wellmicroplate was provided, where any of the solutions of 1a to 1d (25 μM, 170 μL) was poured into each of the wells, and furthermore, 30 μL of a blank solution or 30 μL of the solution of the reagent to be reacted therewith was added thereto. Final concentrations of the solutions in the wells were adjusted so that concentrations of the solutions of 1a to 1d respectively could be 21.3 μM, that of XO could be 13.1 mU/mL, those of HPX, H2O2, ascorbic acid, 1,4-hydroquinone, propylamine, diethylamine, glucose, NADPH and NADH respectively could be 50 μM, that of cytochrome P450 reductase could be 68 mU/mL, that of diaphorase could be 65 mU/mL, and that of esterase could be 0.5 U/mL, respectively. Then, after they reacted in the wells at 37° C. for 10 minutes, fluorescent responses were measured respectively. Fluorescence intensity measurement was conducted by using an ETC-272 Peltier thermostatted single cell holder (trade name) manufactured by JASCO Corporation or a SpectraMax GeminiEM fluorescence plate reader (trade name) manufactured by Molecular Devices Corporation provided with a FP-750 spectrofluorometer (trade name) manufactured by JASCO Corporation, and by setting excitation wavelengths and emission wavelengths so that those of 1a, 1b and 1c respectively could be 485 nm and 515 nm, and those of 1d respectively could be 511 nm and 540 nm.

O=C1OC2(c3ccccc31)c1cc(F)c(OS(=O)(=O)c3ccc([N+](=O)[O-])cc3[N+](=O)[O-])c(F)c1Oc1c2cc(F)c(OS(=O)(=O)c2ccc([N+](=O)[O-])cc2[N+](=O)[O-])c1F [Compound 1d]
fluorescent response, esterase: 15
